Where a SMILES comes first, the peptide text is derived from it. [ ]: non-standard residue; d: D form. pS = N[C@@H](COP(=O)(O)O)C(=O)O
What was measured:
[1] = molecular target: T1, BRCT(BRCA1) (Homo sapiens, UniProt P38398); experiment: Competitive fluorescence polarization, inhibition of BRCT; format: binding
[2] = molecular target: T1, BRCT(BRCA1); settings: systematic structure activity relationship study; ref [3]; cited from earlier work
[3] = Precipitation of Olaparib; format: physicochemical

T1 sequence (P38398 1646-1859 limits assumed): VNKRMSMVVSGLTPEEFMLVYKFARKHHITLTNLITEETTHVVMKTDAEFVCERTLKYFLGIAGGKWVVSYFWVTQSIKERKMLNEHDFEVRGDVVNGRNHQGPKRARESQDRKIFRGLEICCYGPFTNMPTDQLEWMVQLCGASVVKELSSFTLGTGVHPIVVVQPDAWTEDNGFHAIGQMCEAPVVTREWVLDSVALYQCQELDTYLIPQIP

Ki [1] | concentration at which precipitation of Olaparib was observed [3] | Structure (SMILES) | binding affinity for BRCT(BRCA1) [2]
230 ± 60 nM |  | CC(=O)N[C@@H](COP(=O)(O)O)C(=O)N1CCC[C@H]1C(=O)N[C@H](C(=O)N[C@@H](Cc1ccccc1)C(=O)O)[C@@H](C)O [Inhibitor 1, Ac-pSPTF-CO2H] (Ac-[pS]PTF-OH) | nanomolar binding affinities
 | higher than 25 μM | O=C(c1cc(Cc2n[nH]c(=O)c3ccccc23)ccc1F)N1CCN(C(=O)C2CC2)CC1 [Olaparib] | 

Source: PMC3402595 (Breast Cancer Research and Treatment, 2012)
